Tests used:
[1] = Stability of cannabinoid entourage and Vitamin E components of the powder concentrate by LCMSMS; assay type: physicochemical; conditions: powder stored at 21-25° C.
Description: At each time period, 0.05 g of powder was dissolved in 10 ml-15 of ethanol, diluted to fall within the analytical range, and injected into the LCMSMS for analysis.

[2] = Stability of cannabinoid compounds and Vitamin E components in Beverage 1 (AB White) by LCMSMS; assay type: physicochemical

Structure (SMILES): Cc1c(C)c2c(c(C)c1O)CC[C@@](C)(CCC[C@H](C)CCC[C@H](C)CCCC(C)C)O2 [α-Tocopherol]
- Stability of Vitamin Es in Powder Concentrate ([1]; 0 days): 4.85 mg/g powder
- Stability of Vitamin Es in Powder Concentrate ([1]; 1 days): 4.89 mg/g powder
- Stability of Vitamin Es in Powder Concentrate ([1]; 2 days): 4.79 mg/g powder
- Stability of Vitamin Es in Powder Concentrate ([1]; 3 days): 4.69 mg/g powder
- Stability of Vitamin Es in Powder Concentrate ([1]; 5 days): 4.99 mg/g powder
- Stability of Vitamin Es in Powder Concentrate ([1]; 8 days): 4.69 mg/g powder
- Stability of Vitamin Es in Powder Concentrate ([1]; 9 days): 4.75 mg/g powder
- Stability of Vitamin Es in Powder Concentrate ([1]; 10 days): 4.77 mg/g powder
- Stability of Vitamin Es in Powder Concentrate ([1]; 11 days): 5.04 mg/g powder
- Stability of Vitamin Es in Powder Concentrate ([1]; 12 days): 5.01 mg/g powder
- Stability of Vitamin Es in Powder Concentrate ([1]; 15 days): 5.07 mg/g powder
- Stability of Vitamin Es in Powder Concentrate ([1]; 16 days): 4.96 mg/g powder
- Stability of Vitamin Es in Powder Concentrate ([1]; 17 days): 4.94 mg/g powder
- Stability of Vitamin Es in Powder Concentrate ([1]; 18 days): 4.77 mg/g powder
- Stability of Vitamin Es in Powder Concentrate ([1]; 19 days): 5.04 mg/g powder
- Stability of Vitamin Es in Powder Concentrate ([1]; 22 days): 4.94 mg/g powder
- Stability of Vitamin Es in Powder Concentrate ([1]; 23 days): 4.91 mg/g powder
- Stability of Vitamin Es in Powder Concentrate ([1]; 24 days): 5.00 mg/g powder
- Stability of Vitamin Es in Powder Concentrate ([1]; 25 days): 5.06 mg/g powder
- Stability of Vitamin Es in Powder Concentrate ([1]; 26 days): 4.84 mg/g powder
- Stability of Vitamin Es in Powder Concentrate ([1]; 29 days): 4.85 mg/g powder
- Stability of Vitamin Es in Powder Concentrate ([1]; 30 days): 4.83 mg/g powder
- Stability of Vitamin Es in Powder Concentrate ([1]; 60 days): 4.91 mg/g powder
- Stability of Vitamin Es in Powder Concentrate ([1]; 90 days): 4.96 mg/g powder
- Stability of Vitamin Es in Powder Concentrate ([1]; 120 days): 4.93 mg/g powder
- Stability of Vitamin Es in Powder Concentrate ([1]; 150 days): 4.69 mg/g powder
- Stability of Vitamin Es in Powder Concentrate ([1]; 180 days): 4.70 mg/g powder
- Stability of Vitamin Es in Powder Concentrate ([1]; 210 days): 4.84 mg/g powder
- Stability of Vitamin Es in Powder Concentrate ([1]; 240 days): 5.03 mg/g powder
- Stability of Vitamin Es in Powder Concentrate ([1]; 270 days): 4.78 mg/g powder
- Stability of Vitamin Es in Powder Concentrate ([1]; 300 days): 4.81 mg/g powder
- Stability of Vitamin Es in Powder Concentrate ([1]; 330 days): 4.81 mg/g powder
- Stability of Vitamin Es in Powder Concentrate ([1]; 360 days): 4.83 mg/g powder
- Stability of Vitamin Es in Powder Concentrate ([1]; 390 days): 4.91 mg/g powder
- Stability of Vitamin Es in Powder Concentrate ([1]; 420 days): 4.69 mg/g powder
- Stability of Vitamin Es in Powder Concentrate ([1]; 450 days): 5.00 mg/g powder
- Stability of Vitamin Es in Powder Concentrate ([1]; 480 days): 4.98 mg/g powder
- Stability of Vitamin Es in Powder Concentrate ([1]; 510 days): 5.02 mg/g powder
- Stability of Vitamin Es in Powder Concentrate ([1]; 540 days): 5.03 mg/g powder
- Stability of Vitamin Es in Powder Concentrate ([1]; 570 days): 4.72 mg/g powder
- Stability of Vitamin Es in AB White ([2]; stored at 8° C., 0 days): 26.1 µg/mL
- Stability of Vitamin Es in AB White ([2]; stored at 8° C., 1 days): 24.90 µg/mL
- Stability of Vitamin Es in AB White ([2]; stored at 8° C., 2 days): 23.46 µg/mL
- Stability of Vitamin Es in AB White ([2]; stored at 8° C., 3 days): 23.21 µg/mL
- Stability of Vitamin Es in AB White ([2]; stored at 8° C., 5 days): 23.39 µg/mL
- Stability of Vitamin Es in AB White ([2]; stored at 8° C., 8 days): 24.65 µg/mL
- Stability of Vitamin Es in AB White ([2]; stored at 8° C., 9 days): 24.42 µg/mL
- Stability of Vitamin Es in AB White ([2]; stored at 8° C., 10 days): 24.57 µg/mL
- Stability of Vitamin Es in AB White ([2]; stored at 8° C., 11 days): 25.45 µg/mL
- Stability of Vitamin Es in AB White ([2]; stored at 8° C., 12 days): 23.97 µg/mL
- Stability of Vitamin Es in AB White ([2]; stored at 8° C., 15 days): 25.48 µg/mL
- Stability of Vitamin Es in AB White ([2]; stored at 8° C., 16 days): 25.02 µg/mL
- Stability of Vitamin Es in AB White ([2]; stored at 8° C., 17 days): 24.17 µg/mL
- Stability of Vitamin Es in AB White ([2]; stored at 8° C., 18 days): 23.28 µg/mL
- Stability of Vitamin Es in AB White ([2]; stored at 8° C., 19 days): 24.12 µg/mL
- Stability of Vitamin Es in AB White ([2]; stored at 8° C., 22 days): 23.51 µg/mL
- Stability of Vitamin Es in AB White ([2]; stored at 8° C., 23 days): 24.27 µg/mL
- Stability of Vitamin Es in AB White ([2]; stored at 8° C., 24 days): 24.72 µg/mL
- Stability of Vitamin Es in AB White ([2]; stored at 8° C., 25 days): 25.28 µg/mL
- Stability of Vitamin Es in AB White ([2]; stored at 8° C., 26 days): 25.25 µg/mL
- Stability of Vitamin Es in AB White ([2]; stored at 8° C., 29 days): 24.87 µg/mL
- Stability of Vitamin Es in AB White ([2]; stored at 8° C., 30 days): 23.64 µg/mL
- Stability of Vitamin Es in AB White ([2]; stored at 8° C., 60 days): 22.96 µg/mL
- Stability of Vitamin Es in AB White ([2]; stored at 8° C., 90 days): 24.27 µg/mL
- Stability of Vitamin Es in AB White ([2]; stored at 8° C., 120 days): 23.01 µg/mL
- Stability of Vitamin Es in AB White ([2]; stored at 8° C., 150 days): 24.32 µg/mL
- Stability of Vitamin Es in AB White ([2]; stored at 8° C., 180 days): 24.54 µg/mL
- Stability of Vitamin Es in AB White ([2]; stored at 8° C., 210 days): 23.71 µg/mL
- Stability of Vitamin Es in AB White ([2]; stored at 8° C., 240 days): 22.68 µg/mL
- Stability of Vitamin Es in AB White ([2]; stored at 8° C., 270 days): 22.68 µg/mL
- Stability of Vitamin Es in AB White ([2]; stored at 8° C., 300 days): 22.76 µg/mL
- Stability of Vitamin Es in AB White ([2]; stored at 8° C., 330 days): 23.21 µg/mL
- Stability of Vitamin Es in AB White ([2]; stored at 8° C., 360 days): 22.25 µg/mL
- Stability of Vitamin Es in AB White ([2]; stored at 8° C., 390 days): 22.45 µg/mL
- Stability of Vitamin Es in AB White ([2]; stored at 8° C., 420 days): 22.35 µg/mL
- Stability of Vitamin Es in AB White ([2]; stored at 8° C., 450 days): 22.88 µg/mL
- Stability of Vitamin Es in AB White ([2]; stored at 8° C., 480 days): 22.05 µg/mL
- Stability of Vitamin Es in AB White ([2]; stored at 8° C., 510 days): 21.32 µg/mL
- Stability of Vitamin Es in AB White ([2]; stored at 8° C., 540 days): 21.72 µg/mL
- Stability of Vitamin Es in AB White ([2]; stored at 8° C., 570 days): 22.00 µg/mL
- Stability of Vitamin Es in AB White ([2]; stored at 21-25° C., 0 days): 26.1 µg/mL
- Stability of Vitamin Es in AB White ([2]; stored at 21-25° C., 1 days): 25.1 µg/mL
- Stability of Vitamin Es in AB White ([2]; stored at 21-25° C., 2 days): 25.5 µg/mL
- Stability of Vitamin Es in AB White ([2]; stored at 21-25° C., 3 days): 25.8 µg/mL
- Stability of Vitamin Es in AB White ([2]; stored at 21-25° C., 5 days): 25.4 µg/mL
- Stability of Vitamin Es in AB White ([2]; stored at 21-25° C., 8 days): 23.9 µg/mL
- Stability of Vitamin Es in AB White ([2]; stored at 21-25° C., 9 days): 25.3 µg/mL
- Stability of Vitamin Es in AB White ([2]; stored at 21-25° C., 10 days): 26.3 µg/mL
- Stability of Vitamin Es in AB White ([2]; stored at 21-25° C., 11 days): 26.0 µg/mL
- Stability of Vitamin Es in AB White ([2]; stored at 21-25° C., 12 days): 24.6 µg/mL
- Stability of Vitamin Es in AB White ([2]; stored at 21-25° C., 15 days): 23.9 µg/mL
- Stability of Vitamin Es in AB White ([2]; stored at 21-25° C., 16 days): 24.2 µg/mL
- Stability of Vitamin Es in AB White ([2]; stored at 21-25° C., 17 days): 26.2 µg/mL
- Stability of Vitamin Es in AB White ([2]; stored at 21-25° C., 18 days): 25.3 µg/mL
- Stability of Vitamin Es in AB White ([2]; stored at 21-25° C., 19 days): 23.8 µg/mL
- Stability of Vitamin Es in AB White ([2]; stored at 21-25° C., 22 days): 25.7 µg/mL
- Stability of Vitamin Es in AB White ([2]; stored at 21-25° C., 23 days): 23.8 µg/mL
- Stability of Vitamin Es in AB White ([2]; stored at 21-25° C., 24 days): 25.8 µg/mL
- Stability of Vitamin Es in AB White ([2]; stored at 21-25° C., 25 days): 25.0 µg/mL
- Stability of Vitamin Es in AB White ([2]; stored at 21-25° C., 26 days): 24.8 µg/mL
- Stability of Vitamin Es in AB White ([2]; stored at 21-25° C., 29 days): 26.1 µg/mL
- Stability of Vitamin Es in AB White ([2]; stored at 21-25° C., 30 days): 23.9 µg/mL
- Stability of Vitamin Es in AB White ([2]; stored at 21-25° C., 60 days): 25.0 µg/mL
- Stability of Vitamin Es in AB White ([2]; stored at 21-25° C., 90 days): 23.7 µg/mL
- Stability of Vitamin Es in AB White ([2]; stored at 21-25° C., 120 days): 24.7 µg/mL
- Stability of Vitamin Es in AB White ([2]; stored at 21-25° C., 150 days): 24.4 µg/mL
- Stability of Vitamin Es in AB White ([2]; stored at 21-25° C., 180 days): 23.6 µg/mL
- Stability of Vitamin Es in AB White ([2]; stored at 21-25° C., 210 days): 23.1 µg/mL
- Stability of Vitamin Es in AB White ([2]; stored at 21-25° C., 240 days): 24.2 µg/mL
- Stability of Vitamin Es in AB White ([2]; stored at 21-25° C., 270 days): 23.1 µg/mL
- Stability of Vitamin Es in AB White ([2]; stored at 21-25° C., 300 days): 24.2 µg/mL
- Stability of Vitamin Es in AB White ([2]; stored at 21-25° C., 330 days): 24.4 µg/mL
- Stability of Vitamin Es in AB White ([2]; stored at 21-25° C., 360 days): 23.6 µg/mL
- Stability of Vitamin Es in AB White ([2]; stored at 21-25° C., 390 days): 23.1 µg/mL
- Stability of Vitamin Es in AB White ([2]; stored at 21-25° C., 420 days): 22.8 µg/mL
- Stability of Vitamin Es in AB White ([2]; stored at 21-25° C., 450 days): 23.4 µg/mL
- Stability of Vitamin Es in AB White ([2]; stored at 21-25° C., 480 days): 21.6 µg/mL
- Stability of Vitamin Es in AB White ([2]; stored at 21-25° C., 510 days): 21.9 µg/mL
- Stability of Vitamin Es in AB White ([2]; stored at 21-25° C., 540 days): 22.0 µg/mL
- Stability of Vitamin Es in AB White ([2]; stored at 21-25° C., 570 days): 22.2 µg/mL
